# Experimental data from ChEMBL document CHEMBL4837249, “Discovery of Potent Antiallergic Agents Based on an o-Aminopyridinyl Alkynyl Scaffold” (J Med Chem, 2021).
# Columns and labels:
# [1] = Therapeutic index, ratio of CC50 for rat RBL2H3 cells to IC50 for Antiallergic activity against anti-DNP-IgE sensitized rat RBL-2H3 cells; format: toxicity; conditions: read-out: TI
# [2] = tested on: RBL-2H3; assay: Antiallergic activity against anti-DNP-IgE sensitized rat RBL-2H3 cells assessed as […] of degranulation by measuring beta-hexosaminidase release using P-nitrophenyl-N-acetyl-D-glucosamide as substrate at 1 uM measured after 1 hr by microplate reader relative to control; format: functional
# [3] = tested on: RBL-2H3; assay: Antiallergic activity against anti-DNP-IgE sensitized rat RBL-2H3 cells assessed as […] of degranulation by measuring beta-hexosaminidase release using P-nitrophenyl-N-acetyl-D-glucosamide as substrate at 0.2 uM measured after 1 hr by microplate reader relative to control; format: functional
# [4] = tested on: RBL-2H3; assay: Antiallergic activity against anti-DNP-IgE sensitized rat RBL-2H3 cells assessed as […] of degranulation by measuring beta-hexosaminidase release using P-nitrophenyl-N-acetyl-D-glucosamide as substrate measured after 1 hr by microplate reader; format: functional, cell-based; conditions: RBL-2H3, 1 h
# [5] = tested on: RBL-2H3; assay: Antiallergic activity against anti-DNP-IgE sensitized rat RBL-2H3 cells assessed as […] of degranulation by measuring beta-hexosaminidase release using P-nitrophenyl-N-acetyl-D-glucosamide as substrate at 0.04 uM measured after 1 hr by microplate reader relative to control; format: functional
# [6] = target: Macrophage colony-stimulating factor 1 receptor (Homo sapiens, UniProt P07333); assay: Inhibition of human recombinant CSF1R using ATP/Ulight-TK peptide incubated for 15 mins
# Chain of Macrophage colony-stimulating factor 1 receptor (P07333 whole entry): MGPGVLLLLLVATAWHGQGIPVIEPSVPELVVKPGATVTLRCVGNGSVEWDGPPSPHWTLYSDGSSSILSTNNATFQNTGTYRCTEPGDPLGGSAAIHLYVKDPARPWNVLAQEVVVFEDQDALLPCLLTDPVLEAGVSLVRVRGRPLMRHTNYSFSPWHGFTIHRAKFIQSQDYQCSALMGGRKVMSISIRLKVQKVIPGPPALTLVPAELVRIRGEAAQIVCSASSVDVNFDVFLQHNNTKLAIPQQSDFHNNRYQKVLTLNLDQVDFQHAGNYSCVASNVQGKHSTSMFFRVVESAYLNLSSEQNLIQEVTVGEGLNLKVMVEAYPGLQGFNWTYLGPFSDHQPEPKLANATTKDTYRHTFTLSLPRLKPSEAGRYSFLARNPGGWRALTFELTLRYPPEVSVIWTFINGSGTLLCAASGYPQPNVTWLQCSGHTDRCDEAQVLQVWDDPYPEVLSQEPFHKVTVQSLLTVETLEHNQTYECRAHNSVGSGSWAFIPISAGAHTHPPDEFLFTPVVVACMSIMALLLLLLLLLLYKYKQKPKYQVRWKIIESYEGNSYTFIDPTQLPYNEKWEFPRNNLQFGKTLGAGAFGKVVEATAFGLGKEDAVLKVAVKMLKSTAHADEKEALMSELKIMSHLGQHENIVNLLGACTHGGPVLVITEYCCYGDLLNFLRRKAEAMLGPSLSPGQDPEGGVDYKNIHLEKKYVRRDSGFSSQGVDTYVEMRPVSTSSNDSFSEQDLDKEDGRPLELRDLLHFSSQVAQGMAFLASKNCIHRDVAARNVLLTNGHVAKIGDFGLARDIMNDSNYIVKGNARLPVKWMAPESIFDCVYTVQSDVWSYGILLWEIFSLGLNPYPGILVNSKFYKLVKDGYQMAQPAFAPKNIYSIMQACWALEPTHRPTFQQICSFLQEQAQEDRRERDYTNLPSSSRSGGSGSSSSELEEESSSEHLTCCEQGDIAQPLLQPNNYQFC
Structure (SMILES),selectivity ratio [1],inhibition at 1 µM [2],inhibition at 0.2 µM [3],IC50 [4],inhibition at 0.04 µM [5],IC50 [6]
Cc1ccc(C(=O)Nc2cccc(C(F)(F)F)c2)cc1C#Cc1cc(-c2cnn(C)c2)cnc1N,2.5,113%,109%,2.75 nM,88.9%,–
COc1cc(NC(=O)c2ccc(Cl)c(C#Cc3cc(-c4cnn(C)c4)cnc3N)c2)cc(OC)c1,–,52.5%,9.97%,–,0%,–
COc1cc(NC(=O)c2cccc(C#Cc3cc(-c4cnn(C)c4)cnc3N)c2)cc(OC)c1,–,41%,272%,–,1.08%,–
COc1cc(NC(=O)c2ccc(C)c(C#Cc3cccnc3N)c2)cc(OC)c1,–,55.9%,3.01%,–,4.26%,–
Cc1ccc(C(=O)Nc2cccc(OC(F)(F)F)c2)cc1C#Cc1cc(-c2cnn(C)c2)cnc1N,12.9,150%,138%,7.15 nM,81.1%,24 nM
Cc1ccc(C(=O)Nc2ccc3c(c2)OCCO3)cc1C#Cc1cc(-c2cnn(C)c2)cnc1N,–,132%,102%,67.3 nM,66.8%,–
COc1cc(NC(=O)c2ccc(C)c(C#Cc3cc(-c4cnn(C)c4)cnc3N)c2)cc(OC)c1OC,2.2,131%,103%,7.43 nM,82.6%,8 nM
COc1cc(NC(=O)c2cccc(C#Cc3cc(-c4cnn(C)c4)cnc3N)c2C)cc(OC)c1,–,18.3%,8.75%,–,3.11%,–
Cc1ccc(C(=O)Nc2ccccc2Cl)cc1C#Cc1cc(-c2cnn(C)c2)cnc1N,–,25%,-5.24%,–,-4.58%,–
COc1cccc(NC(=O)c2ccc(C)c(C#Cc3cc(-c4cnn(C)c4)cnc3N)c2)c1,–,125%,80.5%,21.9 nM,–,–
Cc1ccc(C(=O)Nc2ccc(Cl)cc2)cc1C#Cc1cc(-c2cnn(C)c2)cnc1N,11.3,89.5%,68.6%,23.9 nM,52%,–
COc1cc(NC(=O)c2cccc(C#Cc3cc(-c4cnn(C)c4)cnc3N)c2F)cc(OC)c1,–,33%,24.8%,–,34%,–
Cc1ccc(C(=O)Nc2ccccc2)cc1C#Cc1cc(-c2cnn(C)c2)cnc1N,–,65.3%,40.9%,–,28.6%,–
COc1cc(NC(=O)c2ccc(OC)c(C#Cc3cc(-c4cnn(C)c4)cnc3N)c2)cc(OC)c1,–,34%,18%,–,11%,–
Cc1ccc(C(=O)NC2CCCCC2)cc1C#Cc1cc(-c2cnn(C)c2)cnc1N,–,63.7%,–,–,0.18%,–
CNC(=O)c1cnc(N)c(C#Cc2cc(C(=O)Nc3cc(OC)cc(OC)c3)ccc2C)c1,–,66.2%,26.8%,–,14.7%,–
COc1cc(NC(=O)c2cccc(C#Cc3cc(-c4cnn(C)c4)cnc3N)c2OC)cc(OC)c1,–,22.8%,6.7%,–,0%,–
Cc1ccc(C(=O)Nc2ccc(Cl)c(Cl)c2)cc1C#Cc1cc(-c2cnn(C)c2)cnc1N,–,65%,40.6%,–,39.8%,–

Structure (SMILES),selectivity ratio [1],inhibition at 1 µM [2],inhibition at 0.2 µM [3],IC50 [4],inhibition at 0.04 µM [5],IC50 [6]
COc1cc(NC(=O)c2ccc(C(C)C)c(C#Cc3cc(-c4cnn(C)c4)cnc3N)c2)cc(OC)c1,–,-1.01%,-7.82%,–,-8.56%,–
COc1cc(NC(=O)c2ccc(F)c(C#Cc3cc(-c4cnn(C)c4)cnc3N)c2)cc(OC)c1,–,30.9%,0.83%,–,2.34%,–
COc1cc(NC(=O)c2ccc(Br)c(C#Cc3cc(-c4cnn(C)c4)cnc3N)c2)cc(OC)c1,–,79.2%,36.6%,–,22.6%,–
Cc1ccc(C(=O)Nc2ccc(C(F)(F)F)c(C(F)(F)F)c2)cc1C#Cc1cc(-c2cnn(C)c2)cnc1N,–,144%,–,58.8 nM,40.5%,–
COc1cc(NC(=O)c2ccc(C)c(C#Cc3cc(Cl)cnc3N)c2)cc(OC)c1,–,50.9%,37%,–,-1.58%,–
COc1cc(NC(=O)c2ccc(C(F)(F)F)c(C#Cc3cc(-c4cnn(C)c4)cnc3N)c2)cc(OC)c1,–,15.7%,-2.84%,–,-3.24%,–
Cc1ccc(C(=O)Nc2ccccn2)cc1C#Cc1cc(-c2cnn(C)c2)cnc1N,–,60.6%,21.1%,–,2.86%,–
Cc1ccc(C(=O)Nc2ccc(CN3CCN(C)CC3)c(C(F)(F)F)c2)cc1C#Cc1cnc2cccnn12 [PONATINIB],–,–,–,148 nM,–,–
COc1ccc(NC(=O)c2ccc(C)c(C#Cc3cc(-c4cnn(C)c4)cnc3N)c2)cc1,–,101%,66.9%,10.6 nM,41.5%,–
Cc1ccc(C(=O)Nc2cccc(Cl)c2)cc1C#Cc1cc(-c2cnn(C)c2)cnc1N,3.8,118%,82.9%,6.54 nM,49%,–
COc1cc(NC(=O)c2ccc(C)c(C#Cc3cc(-c4cnn(C)c4)cnc3N)c2)cc(OC)c1,15.4,108%,61.7%,25.8 nM,20.1%,–
CCNc1ncc(-c2cnn(C)c2)cc1C#Cc1cc(C(=O)Nc2cc(OC)cc(OC)c2)ccc1C,–,95.4%,45.3%,–,16.8%,–
COc1ccccc1NC(=O)c1ccc(C)c(C#Cc2cc(-c3cnn(C)c3)cnc2N)c1,–,73.5%,–,–,10.2%,–
FC(F)(F)c1ccc(CNc2ccc(Cc3c[nH]c4ncc(Cl)cc34)cn2)cn1 [PEXIDARTINIB],–,–,–,> 1000 nM,–,–
COc1cc(NC(=O)c2ccc(C)c(C#Cc3cc(C(N)=O)cnc3N)c2)cc(OC)c1,–,74.2%,13.7%,–,10.8%,–
Cc1ccc(C(=O)Nc2ccc(C(F)(F)F)cc2)cc1C#Cc1cc(-c2cnn(C)c2)cnc1N,2.3,78.4%,60.8%,6.08 nM,51.1%,–
Cc1ccc(C(=O)Nc2ccc(Cl)c(C(F)(F)F)c2)cc1C#Cc1cc(-c2cnn(C)c2)cnc1N,13.9,170%,145%,13 nM,76.1%,30 nM
COc1ccc(NC(=O)c2ccc(C)c(C#Cc3cc(-c4cnn(C)c4)cnc3N)c2)cc1OC,–,82.2%,49.7%,–,23.7%,–
